According to paper PMC10959927, “Platinum iodido drugs show potential anti-tumor activity, affecting cancer cell metabolism and inducing ROS and senescence in gastrointestinal cancer cells” (Communications Biology, 2024):
“And” between values parts separate entries of the source, which are not always exact repeats. Identical values can stand only once.

Tests used:
Format in all cases: cell-based, human
[1] = test system: telomeres, 36B4, MT-COX1, MT-CYB DNA of PANC1 cells; assay: Oxidized bases (FPG-sensitive lesions) in genome regions by qPCR; conditions: PANC1, IC50 concentration 24 h, normalized to control, single replicates
Excerpt: (§1) Total cellular DNA from MKN45 and PANC1 cells was extracted using an NZY Tissue gDNA Isolation Kit (Nzytech, MB13503) following the manufacturer’s instructions and quantified using a Nanodrop (Nanodrop Spectrophotometer ND-1000, ThermoFisher Scientific, Wilmington, DE, USA). We adapted the procedure described by O’Callaghan et al.[76] to measure oxidative DNA damage at telomeres, 36B4 genomic region and at mitochondrial DNA (MT-COX1, MT-CYB). This is a qPCR method based on differences in PCR kinetics between DNA template digested by Formamidopyrimidine DNA Glycosylase (FPG, Cat no. M0240S) and undigested DNA. This enzyme recognizes and cuts 8-oxoguanine, producing apurinic sites that are converted into single-strand breaks by its apurinic sites lyase activity. These single-strand breaks inhibit the PCR, thus, the ΔCT after digesting DNA by […] (Ct digested–Ct undigested) is proportional to the oxidative damage in the amplified region. DNA was incubated with 8 Units of FPG during 3 h in FPG buffer (NEB1, M0240S). The reaction was stopped by incubation at 95 °C for 5 min. qPCR analysis was performed on 40 ng of digested or undigested genomic DNA. Each qPCR was performed in triplicate including no-template controls in a StepOne Real‐time PCR System (Applied Biosystems, 4376357). Target genes (Table 3) were amplified using SYBR Green (Applied Biosystems, MB345). Thermal cycling of the qPCR reaction was initiated with a denaturation step at 95 °C for 10 min. The process consisted of 40 cycles (denaturation at 95 °C for 15 sec, annealing at 60 °C for 30 sec, and elongation at 72 °C for 30 sec). This experiment was repeated three independent times with 10–12 replicates.

[2] = test system: telomeres, 36B4, MT-COX1, MT-CYB DNA of MKN45 cells; assay: as above; conditions: MKN45, IC50 concentration 24 h, normalized to control, single replicates
Excerpt: as §1

[3] = test system: MKN45 cells; assay: Immunofluorescence of γ-H2AX foci; conditions: Fig. 3B; for foci/cell, number of cells in class: cell count
Protocol: Cells (7 × 10^4) were seeded on 20 mm coverslips. […] Coverslips were incubated for 1 h with the primary antibody (Cell Signaling: H2AX Ser139 (#2595) and 53BP1 (#4937)) at room temperature, followed by a 1 h incubation with the appropriate secondary antibody. DNA was stained with DAPI. Fluorescence microscopy was performed using a NIKON Eclipse 90i. The image analysis was performed using the software program Nikon NIS-Elements and Image J.

[4] = test system: PANC1 cells; assay: Western blotting (p-p53, p-JNK, p-p38, p-ERK, p-CHK1/2, Mcl1, BID, BAX); conditions: for fold change BAX vs Tubulin / fold change MCL1 vs Tubulin: Fig. S3B; for fold change p-ERK vs Tubulin / fold change p-JNK vs Tubulin / fold change p-p38 vs Tubulin / fold change p-p53 vs Tubulin: PANC1, Fig. 4A, replicate values
Protocol: (§2) Total protein extracts were obtained by adding the lysis buffer: 25 mM HEPES pH 7.5, 0.3 M NaCl, 1.5 mM MgCl2, 0.2 mM EDTA, 0.5 mM DTT, 20 mM β-glicerophosphate, 0.1 mM Na3VO4, 0.1% triton X-100; in the presence of protease inhibitors. Twenty μg of protein per sample were loaded and resolved using 8%, 10% or 15% SDS-PAGE polyacrylamide gels, and then transferred onto PVDF membranes, followed by immunodetection using appropriate antibodies, purchased from Santa Cruz Technology: Mcl-1 (sc-819), Cell Signaling Technology: BIM, BID, BAX (#9942), p-p38 (1:2000, #4631), p-p53^ser15 (#9284), p-ERK1/2 (1:2000, #9106), p-CHK1^ser345 and p-CHK2^ser19 (#9931), Promega Corporation-Spain: p-JNK (#V7932), or Sigma-Aldrich: α-tubulin (1:10000, #TP026). Unless indicated, all antibodies were diluted 1:1000. Secondary antibodies conjugated with horseradish peroxidase were purchased from BioRad, and chemiluminescence detection was performed using ECL (Santa Cruz Biotechnology).

[5] = test system: AGS cells; assay: as above; conditions: for fold change p-ERK vs Tubulin / fold change p-JNK vs Tubulin / fold change p-p38 vs Tubulin / fold change p-p53 vs Tubulin: Fig. 4A, replicate values; for fold change BAX vs Tubulin / fold change BID full length vs Tubulin / fold change MCL1 vs Tubulin: Fig. S3B
Protocol: as §2

CC(C)[NH][Pt@SP1]([I])([I])[NH]C(C)C [I6, cis-[PtI2(isopropylamine)2]]
TEL (Fold change - ΔCt TEL), oxidative DNA damage ([1]; FPG-digested vs undigested): 5.579 and 4.9877 and 4.471 and 0.2398 and 0.9572 and 1.407 and 2.172 and 1.711 and 1.673 and 1.777
36B4 (Fold change - ΔCt 36B4), oxidative DNA damage [1]: 1.888 and 2.028 and 1.034 and 1.832 and 3.4044 and 3.392 and 3.578 and 2.951 and 2.103 and 2.482
MT-COX1 (Fold change - ΔCt MT-COX1), oxidative DNA damage [1]: 1.444 and 1.678 and 1.516 and 1.609 and 1.88 and 0.5367 and 1.4145 and 1.209 and 1.263 and 1.421
MT-CYB (Fold change - ΔCt MT-CYB), oxidative DNA damage [1]: 1.356 and 1.264 and 1.349 and 1.774 and 2.04 and 1.998 and 2.191 and 4.689 and 8.16 and 4.981 and 6.184
TEL (Fold change - ΔCt TEL), oxidative DNA damage ([2]; FPG-digested vs undigested): 0.7872 and 0.7903 and 0.6876 and 0.7373 and 0.6171 and 1.142 and 1.077 and 1.074 and 1.391
36B4 (Fold change - ΔCt 36B4), oxidative DNA damage [2]: 0.9227 and 0.9306 and 1.569 and 1.862 and 2.074 and 2.392 and 1.861 and 2.101 and 1.707 and 2.034
MT-COX1 (Fold change - ΔCt MT-COX1), oxidative DNA damage [2]: 1.321 and 1.289 and 1.307 and 1.545 and 0.7235 and 0.8203 and 2.299 and 2.595 and 3.243 and 4.134
MT-CYB (Fold change - ΔCt MT-CYB), oxidative DNA damage [2]: 1.235 and 1.231 and 1.262 and 1.5934 and 1.492 and 1.356 and 1.4814 and 1.489 and 0.5469 and 0.6464 and 1.605
foci/cell, share of cells in class (Suma 100) ([3]; class 16-30 foci/cell): 16.6667
foci/cell, number of cells in class ([3]; class 16-30 foci/cell): 7
foci/cell, share of cells in class (Suma 100) ([3]; class 31-45 foci/cell): 14.2857
foci/cell, number of cells in class ([3]; class 31-45 foci/cell): 6
foci/cell, share of cells in class (Suma 100) ([3]; class 46-60 foci/cell): 23.8095
foci/cell, number of cells in class ([3]; class 46-60 foci/cell): 10
foci/cell, share of cells in class (Suma 100) ([3]; class <15 foci/cell): 11.9048
foci/cell, number of cells in class ([3]; class <15 foci/cell): 5
foci/cell, share of cells in class (Suma 100) ([3]; class >61 foci/cell): 33.3333
foci/cell, number of cells in class ([3]; class >61 foci/cell): 14
activation of p53 (p-p53 western blot) ([4]; PANC1, IC50, 1, 3, 6 and 24 h): did not activate p53
phosphorylation of CHK1/2 (DDR pathway, western blot) ([4]; PANC1, IC50, 1, 3, 6 or 24 h): did not activate
fold change BAX vs Tubulin ([4]; PANC1, time 1 h): 1.132 fold change and 1.289 fold change and 1.219 fold change
fold change MCL1 vs Tubulin ([4]; PANC1, time 1 h): 0.6156 fold change and 0.9493 fold change and 1.031 fold change
fold change BAX vs Tubulin ([4]; PANC1, time 3 h): 1.6811 fold change and 1.471 fold change and 1.573 fold change
fold change BAX vs Tubulin ([4]; PANC1, time 6 h): 1.615 fold change and 2.78 fold change and 2.056 fold change
fold change MCL1 vs Tubulin ([4]; PANC1, time 6 h): 1.135 fold change and 2.241 fold change and 1.84 fold change
fold change BAX vs Tubulin ([4]; PANC1, time 24 h): 2.639 fold change and 1.942 fold change and 1.489 fold change
fold change p-ERK vs Tubulin ([4]; Time 1 h): 1.209 fold change and 3.621 fold change and 2.27 fold change
fold change p-JNK vs Tubulin ([4]; Time 1 h): 1.809 fold change and 1.288 fold change and 3.68 fold change
fold change p-p38 vs Tubulin ([4]; Time 1 h): 2.603 fold change and 1.024 fold change and 1.89 fold change
fold change p-p53 vs Tubulin ([4]; Time 1 h): 0.76 fold change and 1.24 fold change and 0.65 fold change
fold change p-ERK vs Tubulin ([4]; Time 3 h): 0.5754 fold change and 1.698 fold change and 1.17 fold change
fold change p-JNK vs Tubulin ([4]; Time 3 h): 0.5257 fold change and 0.2509 fold change and 3.356 fold change
fold change p-p38 vs Tubulin ([4]; Time 3 h): 1.159 fold change and 1.033 fold change and 1.07 fold change
fold change p-p53 vs Tubulin ([4]; Time 3 h): 0.78 fold change and 1.36 fold change and 1.16 fold change
fold change p-ERK vs Tubulin ([4]; Time 6 h): 0.6008 fold change and 2.546 fold change and 1.66 fold change
fold change p-JNK vs Tubulin ([4]; Time 6 h): 0.6321 fold change and 0.3554 fold change and 4.716 fold change
fold change p-p38 vs Tubulin ([4]; Time 6 h): 0.976 fold change and 1.156 fold change and 1.0897 fold change
fold change p-p53 vs Tubulin ([4]; Time 6 h): 1.01 fold change and 0.69 fold change and 0.99 fold change
fold change p-ERK vs Tubulin ([4]; Time 24 h): 0.4409 fold change and 1.892 fold change and 1.09 fold change
fold change p-JNK vs Tubulin ([4]; Time 24 h): 0.5968 fold change and 0.8335 fold change and 2.596 fold change
fold change p-p38 vs Tubulin ([4]; Time 24 h): 1.91 fold change and 1.31 fold change and 1.357 fold change
fold change p-p53 vs Tubulin ([4]; Time 24 h): 2.28 fold change and 1.99 fold change and 1.04 fold change
activation of p53 (p-p53 western blot) ([5]; IC50, 1, 3, 6 and 24 h): did not activate p53
phosphorylation of CHK1/2 (DDR pathway, western blot) ([5]; IC50, 1, 3, 6 or 24 h): did not activate
fold change p-ERK vs Tubulin ([5]; Time 1 h): 2.604 fold change and 2.955 fold change and 1.91 fold change
fold change p-JNK vs Tubulin ([5]; Time 1 h): 1.478 fold change and 1.305 fold change and 1.607 fold change
fold change p-p38 vs Tubulin ([5]; Time 1 h): 1.462 fold change and 1.894 fold change and 2.196 fold change
fold change p-p53 vs Tubulin ([5]; Time 1 h): 0.562 fold change and 0.6997 fold change and 1.25 fold change
fold change p-ERK vs Tubulin ([5]; Time 3 h): 1.3326 fold change and 1.834 fold change and 1.749 fold change
fold change p-JNK vs Tubulin ([5]; Time 3 h): 0.8249 fold change and 0.7387 fold change and 1.623 fold change
fold change p-p38 vs Tubulin ([5]; Time 3 h): 1.1118 fold change and 2.258 fold change and 0.7258 fold change
fold change p-p53 vs Tubulin ([5]; Time 3 h): 0.3925 fold change and 0.7056 fold change and 1.358 fold change
fold change p-ERK vs Tubulin ([5]; Time 6 h): 1.495 fold change and 1.997 fold change and 1.556 fold change
fold change p-JNK vs Tubulin ([5]; Time 6 h): 0.7672 fold change and 1.335 fold change and 1.232 fold change
fold change p-p38 vs Tubulin ([5]; Time 6 h): 1.675 fold change and 3.507 fold change and 1.086 fold change
fold change p-p53 vs Tubulin ([5]; Time 6 h): 0.5607 fold change and 0.7436 fold change and 1.621 fold change
fold change p-ERK vs Tubulin ([5]; Time 24 h): 0.7805 fold change and 2.6246 fold change and 1.218 fold change
fold change p-JNK vs Tubulin ([5]; Time 24 h): 0.8639 fold change and 0.8519 fold change and 1.138 fold change
fold change p-p38 vs Tubulin ([5]; Time 24 h): 2.641 fold change and 0.9281 fold change and 1.316 fold change
fold change p-p53 vs Tubulin ([5]; Time 24 h): 0.6954 fold change and 1.1071 fold change and 1.226 fold change
fold change BAX vs Tubulin ([5]; time 1 h): 1.29 fold change and 0.734 fold change and 1.017 fold change
fold change BID full length vs Tubulin ([5]; time 1 h): 0.722 fold change and 1.325 fold change and 0.67 fold change
fold change MCL1 vs Tubulin ([5]; time 1 h): 0.493 fold change and 0.586 fold change and 0.597 fold change
fold change BAX vs Tubulin ([5]; time 3 h): 0.759 fold change and 1.497 fold change and 1.286 fold change
fold change BID full length vs Tubulin ([5]; time 3 h): 1.126 fold change and 1.525 fold change and 0.803 fold change
fold change MCL1 vs Tubulin ([5]; time 3 h): 0.592 fold change and 1.105 fold change and 0.81 fold change
fold change BAX vs Tubulin ([5]; time 6 h): 1.353 fold change and 1.942 fold change and 1.061 fold change
fold change MCL1 vs Tubulin ([5]; time 6 h): 0.911 fold change and 1.666 fold change and 1.549 fold change
fold change BID full length vs Tubulin ([5]; time 24 h): 1.406 fold change and 1.917 fold change and 1.97 fold change
